In publication PMC7114147 (Antiviral Research, 2013):

Legend:
S31N mutant A/M2 = S31N mutant A/M2 (Influenza A virus, UniProt P0DOF5, S31N); type: biochemical, influenza A/Udorn/72
V27A mutant A/M2 = V27A mutant A/M2 (Influenza A virus, UniProt P0DOF5, V27A); type: biochemical, influenza A/Udorn/72
[1] = system: A/Virginia/ATCC3/2009 (2009 pandemic A/H1N1); type: cell-based, influenza A virus; conditions: read-out: Antiviral activity (EC50) A/2009pan
A/X-31 (A/H3N2) = type: cell-based, influenza A virus; conditions: read-out: Antiviral activity (EC50) A/X-31
A/PR/8/34 4 #8 cl3 = test: microbe, parasite or virus in culture; type: cell-based; conditions: Influenza A virus, PR/8, pH 5.7, read-out: Antiviral activity (EC50), 4 #8 cl3
A/PR/8/34 6c #8 cl3 = test: microbe, parasite or virus in culture; type: cell-based; conditions: Influenza A virus, PR/8, pH 5.5, read-out: Antiviral activity (EC50), 6c #8 cl3
A/H1N1 (A/PR/8/34) = test: microbe, parasite or virus in culture; type: cell-based, influenza A virus; conditions: read-out: Antiviral activity (EC50) A/PR/8/34

| SMILES | Activity against S31N mutant A/M2 (S31N mutant A/M2) | Activity against V27A mutant A/M2 (V27A mutant A/M2) | EC50 [1] [µM] | EC50 (A/X-31 (A/H3N2)) [µM] | EC50 (A/PR/8/34 4 #8 cl3) [µM] | EC50 (A/PR/8/34 6c #8 cl3) [µM] | EC50 (A/H1N1 (A/PR/8/34)) [µM] |
| --- | --- | --- | --- | --- | --- | --- | --- |
| CC(N)C12CC3CC(CC(C3)C1)C2 (stereo not drawn) [Rimantadine, rimantadine] | inactive | inactive | ≥ 158 | 7 ± 1.7 | > 100 | > 100 |  |
| NC12CC3CC(CC(C3)C1)C2 [Amantadine, amantadine] |  |  | 137 ± 10 | 61 ± 12 | > 250 | > 250 |  |
| CCC(CC)O[C@@H]1C=C(C(=O)O)C[C@H](N)[C@H]1NC(C)=O [Oseltamivir carboxylate] |  |  |  | 0.11 ± 0.05 |  |  | 21 ± 9 |
| NC(=O)c1ncn([C@@H]2O[C@H](CO)[C@@H](O)[C@H]2O)n1 [Ribavirin] |  |  | 11 ± 1 | 8.8 ± 0.2 | 26 ± 4 | 24 ± 3 | 8.7 ± 0.7 |
| CC(=O)N[C@H]1[C@H]([C@H](O)[C@H](O)CO)OC(C(=O)O)=C[C@@H]1N=C(N)N [Zanamivir] |  |  |  | 0.16 ± 0.05 |  |  | 6 ± 1.3 |
| C1=CC2C3C4C5C=CC4C24CNCC54C13 [Compound 3, 3-azahexacyclo[7.6.0.0^1,5.0^5,12.0^6,10.0^11,15]pentadeca-7,13-diene] | inactive | inactive |  |  |  |  |  |
